Experiments:
Assay in all cases: relative viability (nuclei count vs DMSO), 5 days (fraction); higher = more cells survive
BAM7 + OSI-027 = compound: CCOC1=CC=CC=C1N=NC2=C(NN(C2=O)C3=NC(=CS3)C4=CC=CC=C4)C [BAM7] + COc1cccc2cc(-c3nc([C@H]4CC[C@H](C(=O)O)CC4)n4ncnc(N)c34)[nH]c12 [OSI-027] (partner 0.5 µM)
Summary of the method: (§1)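 Medians of duplicate plates are given as relative viability. That measure is the nuclei count in treated wells divided by the count in vehicle wells. Counts were taken on 4× images of lung cancer cell lines in 1536-well plates, 5 days after pin-tool dosing the day after seeding with one drug alone or a fixed anchor-drug dose plus five library-drug doses (not always all listed) in √10 steps.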

BAM7 + Decitabine = compound: CCOC1=CC=CC=C1N=NC2=C(NN(C2=O)C3=NC(=CS3)C4=CC=CC=C4)C [BAM7] + Nc1ncn([C@H]2C[C@H](O)[C@@H](CO)O2)c(=O)n1 [Decitabine] (partner 2 µM)
Summary of the method: as §1

[1] = compound: CCn1c(-c2nonc2N)nc2c(C#CC(C)(C)O)ncc(OC[C@H]3CCCNC3)c21 + COc1cccc2cc(-c3nc([C@H]4CC[C@H](C(=O)O)CC4)n4ncnc(N)c34)[nH]c12 [OSI-027] (partner 0.5 µM)
Summary of the method: as §1

BAM7 + Crizotinib = compound: CCOC1=CC=CC=C1N=NC2=C(NN(C2=O)C3=NC(=CS3)C4=CC=CC=C4)C [BAM7] + C[C@@H](Oc1cc(-c2cnn(C3CCNCC3)c2)cnc1N)c1c(Cl)ccc(F)c1Cl [Crizotinib] (partner 1 µM)
Summary of the method: as §1

| Cell Line | relative viability (BAM7 + OSI-027; first compound 0.5 µM) | relative viability (BAM7 + OSI-027; first compound 5 µM) | relative viability (BAM7 + OSI-027; first compound 15.81 µM) | relative viability (BAM7 + OSI-027; first compound 50 µM) | relative viability (BAM7 + Decitabine; first compound 0.5 µM) | relative viability (BAM7 + Decitabine; first compound 5 µM) | relative viability (BAM7 + Decitabine; first compound 15.81 µM) | relative viability (BAM7 + Decitabine; first compound 50 µM) | relative viability ([1]; first compound 0.01 µM) | relative viability ([1]; first compound 0.03162 µM) | relative viability ([1]; first compound 0.1 µM) | relative viability ([1]; first compound 0.3162 µM) | relative viability ([1]; first compound 1 µM) | relative viability (BAM7 + Crizotinib; first compound 0.5 µM) | relative viability (BAM7 + Crizotinib; first compound 5 µM) | relative viability (BAM7 + Crizotinib; first compound 15.81 µM) | relative viability (BAM7 + Crizotinib; first compound 50 µM) |
| --- | --- | --- | --- | --- | --- | --- | --- | --- | --- | --- | --- | --- | --- | --- | --- | --- | --- |
| H3255 | 0.593 | 0.622 | 0.443 | 0.568 | 0.588 | 0.612 | 0.582 | 0.603 | 0.683 | 0.658 | 0.607 | 0.539 | 0.528 | 0.981 | 0.883 | 0.795 | 0.814 |
| SK-MES-1 | 0.573 | 0.549 | 0.545 | 0.663 | 0.346 | 0.337 | 0.375 | 0.395 | 0.642 | 0.598 | 0.552 | 0.531 | 0.609 | 1.05 | 1.01 | 0.961 | 1.04 |
| NCI-H1437 | 1.19 | 0.985 | 0.883 | 0.972 | 0.527 | 0.572 | 0.543 | 0.482 | 0.815 | 0.951 | 0.885 | 0.758 | 0.897 | 1 | 1.16 | 0.53 | 0.937 |
| LU99A | 0.256 | 0.29 | 0.347 | 0.322 | 0.81 | 0.95 | 0.933 | 0.876 | 0.284 | 0.298 | 0.283 | 0.267 | 0.282 | 0.602 | 0.542 | 0.567 | 0.555 |
| HCC-827 | 0.798 | 0.794 | 0.775 | 0.822 | 0.314 | 0.314 | 0.376 | 0.302 | 0.74 | 0.769 | 0.698 | 0.639 | 0.667 | 0.917 | 0.873 | 0.932 | 0.839 |
| LK-2 | 0.206 | 0.205 | 0.225 | 0.218 | 0.352 | 0.335 | 0.347 | 0.326 | 0.199 | 0.212 | 0.179 | 0.218 | 0.173 | 0.246 | 0.23 | 0.244 | 0.27 |
| HCC-366 | 0.879 | 0.839 | 0.729 | 0.784 | 0.325 | 0.327 | 0.319 | 0.313 | 0.963 | 0.834 | 0.45 | 1 | 0.838 | 0.552 | 0.654 | 0.471 | 0.641 |
| BEN | 0.306 | 0.299 | 0.314 | 0.326 | 0.726 | 0.741 | 0.673 | 0.905 | 0.311 | 0.302 | 0.224 | 0.275 | 0.299 | 0.866 | 0.977 | 0.845 | 0.83 |
| NCI-H23 | 0.492 | 0.561 | 0.451 | 0.526 | 0.347 | 0.332 | 0.322 | 0.304 | 0.679 | 0.612 | 0.606 | 0.638 | 0.597 | 0.587 | 0.535 | 0.424 | 0.515 |
| 201T | 0.772 | 0.662 | 0.708 | 0.705 | 0.844 | 0.887 | 0.837 | 0.926 | 0.675 | 0.644 | 0.625 | 0.719 | 0.754 | 0.957 | 1.02 | 0.876 | 0.883 |
| NCI-H2170 | 0.688 | 0.592 | 0.635 | 0.72 | 0.411 | 0.436 | 0.405 | 0.432 | 0.733 | 0.715 | 0.766 | 0.66 | 0.679 | 1.12 | 1.07 | 0.873 | 0.989 |
| NCI-H460 | 0.525 | 0.468 | 0.55 | 0.624 | 0.475 | 0.455 | 0.473 | 0.449 | 0.579 | 0.784 | 0.588 | 0.535 | 0.548 | 1.16 | 1.13 | 0.743 | 0.96 |
| NCI-H661 | 0.662 | 0.704 | 0.761 | 0.686 | 0.597 | 0.579 | 0.611 | 0.579 | 0.659 | 0.781 | 0.644 | 0.553 | 0.501 | 1.27 | 1.08 | 0.971 | 0.931 |
| HCC-15 | 0.727 | 0.696 | 0.7 | 0.758 | 0.607 | 0.587 | 0.621 | 0.676 | 0.576 | 0.602 | 0.626 | 0.575 | 0.595 | 0.812 | 0.811 | 0.785 | 0.724 |
| ABC-1 | 0.491 | 0.504 | 0.474 | 0.593 | 1.06 | 0.983 | 1.34 | 1.06 | 0.394 | 0.36 | 0.394 | 0.31 | 0.304 | 1.49 | 1.34 | 0.987 | 1.21 |
| LCLC-103H | 0.366 | 0.505 | 0.504 | 0.537 | 0.751 | 0.77 | 0.709 | 0.708 | 0.463 | 0.477 | 0.481 | 0.425 | 0.356 | 1.08 | 1.03 | 1.01 | 0.804 |
| NCI-H441 | 0.578 | 0.574 | 0.639 | 0.694 | 0.291 | 0.251 | 0.235 | 0.209 | 0.675 | 0.67 | 0.466 | 0.469 | 0.437 | 0.776 | 0.656 | 0.706 | 0.717 |
| EPLC-272H | 0.289 | – | 0.277 | 0.32 | 0.382 | 0.418 | 0.317 | 0.392 | 0.303 | 0.261 | 0.262 | 0.314 | 0.264 | 0.928 | 0.986 | 1.02 | 0.982 |

Source: the supplement of paper PMC10307832
